Values quoted from earlier work in PMC9558053, “Development of a novel high-throughput screen for the identification of new inhibitors of protein S-acylation” (The Journal of Biological Chemistry, 2022).

Test system: zDHHC20
Design: method as in PMID 34467875, PMID 34309372
Details: ref [33], [39]; read-out: IC50 for inhibition of zDHHC20 activity in vitro; cited from earlier work

For `C=CC(=O)N(CC#N)CCCCCCCCCCCCCC` [N-cyanomethyl-N-myracrylamide], the IC50 is listed as 1.35 ± 0.26 µM.
